Patent US20250228954A1, “Designing Antisense Oligonucleotide Delivery Peptides by Interpretable Machine Learning” (Sarepta Therapeutics, Inc., priority 2020, published 2025)
Square brackets hold non-standard residues; d marks the D form. Ends that are not written are not given here. Ahx = NCCCCCC(=O)O; βAla = NCCC(=O)O

Tested on: HeLa 654 cells
Experiment: HeLa-654 eGFP assay (corrective splicing / exon skipping by PMO IVS2-654)
Type: cell-based, human
Conditions: 5 μM, 22 h; for FOLD OVER PMO: eGFP fluorescence of PMO-peptide conjugate relative to unconjugated PMO
Description: With the 36 constructs synthesized, the ability to modulate PMO activity using the modified HeLa cell assay was tested. The HeLa-654 cells were stably transfected to express a nonfluorescent eGFP protein. The eGFP gene is interrupted by a mutant intron from the human β-globin gene (IVS2-654). The insertion alters pre-mRNA splicing to cause retention of a fragment in the mature mRNA that results in a nonfluorescent protein. PMO IVS2-654 base-pairs with the B-globin insertion, modifies mRNA splicing, and thereby leads to expression of fluorescent eGFP.
For treatment, the crude reaction mixture was diluted to 5 μM in media. The concentration of the modular construct was calculated based on the original concentration of the module 1-2 conjugate mixed in the reaction. Using media containing 10% fetal bovine serum (FBS), the cells were treated with each construct for 22 hours, after which the cellular fluorescence was measured by flow cytometry.
From the lists of hundreds of predicted peptide sequences, twenty candidates were selected that varied in length, charge, and predicted activity to synthesize and test. Just as with the PMO-peptide library, the PMO-Mach constructs were first tested for PMO delivery in the HeLa 654 assay at 5 μM in complete media for 22 hours and analyzed by flow cytometry (FIG. 14). Experiments were conducted using three technical triplicates and two or three biological replicates.
HeLa 654 cells were maintained in MEM supplemented with 10% (v/v) fetal bovine serum (FBS) and 1% (v/v) penicillin-streptomycin at 37° C. and 5% CO2. Eighteen hours prior to treatment, the cells were plated at a density of 5,000 cells per well in a 96-well plate in MEM supplemented with 10% FBS and 1% penicillin-streptomycin. The day of the experiment, the 384 well plate containing the crude reaction mixtures in DMSO was diluted to 100 μM by the addition of 16.8 μL of PBS to the 3.2 μL reaction mixture. Then, each construct was diluted to 5 μM in MEM supplemented with 10% FBS and 1% penicillin-streptomycin. Cells were incubated with each conjugate at a concentration of 5 μM for 22 hours at 37° C. and 5% CO2. Next, the treatment media was aspirated the cells were incubated with Trypsin-EDTA 0.25% for 15 min at 37° C. and 5% CO2, washed 1× with PBS, and resuspended in PBS with 2% FBS and 2 μg/mL propidium iodide. Flow cytometry analysis was carried out on a BD LSRII flow cytometer. Gates were applied to the data to ensure that cells that were highly positive for propidium iodide or had forward/side scatter readings that were sufficiently different from the main cell population were excluded. Each sample was capped at 5,000 gated events.
Analysis was conducted using Graphpad Prism 7. For each sample, the mean fluorescence intensity and the number of gated cells was measured (FIGS. 8 and 9) and the intensity multiplied by the cell number was calculated (FIG. 7).

Substance	FOLD OVER PMO	PMO delivery / activity, result in words
P11: PMO IVS2-654 conjugate of peptide KKKKKQCKKKHRWPKXXC (SEQ ID NO: 79) (KKKKKQCKKKHRWPK[Ahx][Ahx]C; cysteine pairing not given here; also: PMO IVS2-654 conjugate)	12.9	–
P1: PMO IVS2-654 conjugate of peptide KXKKQQGKKKHR (SEQ ID NO: 69) (K[Ahx]KKQQGKKKHR; also: PMO IVS2-654 conjugate)	2.9	–
MACH 11: PMO IVS2-654 conjugate of peptide TSNLKLHLAPPVKKKALKKPLYKAKKKKKVVSPTWXTDQEW (SEQ ID NO: 66), designed to have poor activity (TSNLKLHLAPPVKKKALKKPLYKAKKKKKVVSPTW[Ahx]TDQEW; also: PMO IVS2-654 conjugate)	4	did not significantly improve PMO delivery
MACH 6: PMO IVS2-654 conjugate of peptide ALKBRSAAKAVRWPKKAIKQASKKVAKYALKXXRKKKAASKXWLQLHWPRW (SEQ ID NO: 62) (ALK[βAla]RSAAKAVRWPKKAIKQASKKVAKYALK[Ahx][Ahx]RKKKAASK[Ahx]WLQLHWPRW; also: PMO IVS2-654 conjugate)	43	–
